Earlier results as cited in article PMC6680430, “Quantitative Prediction of Human Pharmacokinetics and Pharmacodynamics of CKD519, a Potent Inhibitor of Cholesteryl Ester Transfer Protein (CETP)” (Pharmaceutics, 2019).

Tested on: CETP
Settings: cited from earlier work

SMILES: COc1cc(F)c(C(C)C)cc1-c1ccc(C(F)(F)F)cc1CN1C(=O)O[C@H](c2cc(C(F)(F)F)cc(C(F)(F)F)c2)[C@@H]1C [anacetrapib]
- peak effect, inhibition of CETP (exposure-response from literature): ~ 90%
- IC50 (known in vivo value for the comparator, read-out: in vivo IC50 (plasma concentration for half of maximum CETP inhibition)): 22 nM
